Structures are written as SMILES. Where only a bound is given, the exact number is not on record here.

The target in series [1] is T1, hPPARβ (Homo sapiens, UniProt Q03181).
T1 sequence (Q03181 171-441 limits assumed): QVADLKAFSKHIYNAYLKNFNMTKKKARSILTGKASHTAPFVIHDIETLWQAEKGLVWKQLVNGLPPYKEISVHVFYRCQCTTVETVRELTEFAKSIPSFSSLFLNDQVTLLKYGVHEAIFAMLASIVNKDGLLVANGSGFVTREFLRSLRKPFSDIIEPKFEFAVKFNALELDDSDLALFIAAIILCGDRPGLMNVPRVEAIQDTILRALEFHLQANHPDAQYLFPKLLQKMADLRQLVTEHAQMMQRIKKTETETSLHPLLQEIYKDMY
Nature of the series: Transient transfection assay in HepG2 cells, Gal4-hPPARβ chimeric receptor, luciferase reporter. It counts as cell-based. Conditions: Hep G2-hBeta EC50, 24 hours incubation; read-out: EC50β nM (Group). The method, then: (§1) 1. Test A. Transient Transfections Assay using the HepG2 Hepatoma Cell Line.
(§2) HepG2 cells were transiently transfected with an expression plasmids encoding hPPARα, hPPARβ or mPPARγ chimeric receptors and a reporter containing the yeast upstream activating sequence (UAS) upstream of the viral E1B promoter controlling a luciferase reporter gene. In addition, the plasmid pRSVβ-gal was used to control for transfection efficiency. HepG2 cells were grown in DMEM supplemented with 10% FBS and 1 μM non-essential amino acid. On the first day, cells were split into 100 mm dishes at 2.5×10^6/dish and incubated overnight at 37° C./5% CO2. On the second day the cells were transiently transfected with plasmid DNA encoding a chimeric receptor, the luciferase reporter gene; and β-gal. For each 100 mm dish, 15 μg of lucifease reporter (PG5E1b) DNA, 15 μg of Gal4-PPAR chimeric receptor DNA, and 1.5 μg of β-gal plasmid DNA were mixed with 1.4 ml of opti-MEM in the tube. 28 μl of LipoFectamine-2000 reagent was added to 1.4 ml of opti-MEM in the tube, and incubate for 5 min at RT. The diluted Lipofectamine-2000 reagent was combined with the DNA mixture, and incubate for 20 min at RT. After fresh medium was added to each 100 mm dish of cells, 2.8 ml of Lipofectamine2000-DNA mixture was added dropwise to the 100 mm dish containing 14 ml of medium, and incubate 37° C. overnight. On day three cells were trypsinized off the 100 mm dishes and re-plated on 96 well plates. Cells were plated at 2.5×10^4 cells per well in 150 μl of media and 50 μl of compound diluted by media was added. The test compound added were in the range from 50 μM to 50 pM. After addition of compounds, the plates were incubated at 37° C. for 24 hours. Subsequently cells were washed with once with 100 μl of PBS, lysed, and processed for measuring luciferase and β-gal activity using Dual-Light luciferase kit from Tropix ®, according to the manufacturer's recommendations, on an EG&G Bethold MicroLumat LB96P luminometer. EC50 values were obtained using the GraphPad Prism™ program.

Series [2] concerns the target T2, hPPARα (Homo sapiens, UniProt Q07869).
T2 sequence (Q07869 200-468 limits assumed): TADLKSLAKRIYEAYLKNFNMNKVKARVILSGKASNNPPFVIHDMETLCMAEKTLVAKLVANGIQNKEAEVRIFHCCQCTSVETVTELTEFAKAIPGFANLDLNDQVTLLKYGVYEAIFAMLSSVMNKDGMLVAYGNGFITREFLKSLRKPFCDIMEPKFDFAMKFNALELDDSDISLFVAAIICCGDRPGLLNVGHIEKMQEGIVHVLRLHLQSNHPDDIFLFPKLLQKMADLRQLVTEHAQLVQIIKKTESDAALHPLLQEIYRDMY
Nature of the series: Transient transfection assay in HepG2 cells, Gal4-hPPARα chimeric receptor, luciferase reporter. Conditions: Hep G2-hAlpha EC50, 24 hours incubation; read-out: EC50α nM (Group). It counts as cell-based. Here is the method: as §1, §2
A general note: Reporter assays use an easily measured gene product as a stand-in for the process of interest.

`Cc1cc(SCc2ccc(OCc3ccc(C(C)(C)C)cc3)cc2)ccc1OCC(=O)O` [Example 34, {4-[4-(4-tert-Butyl-benzyloxy)-benzylsulfanyl]-2-methyl-phenoxy}-acetic acid] registered a melting point of 135 to 137 °C. In series [1], the EC50 was less than 300 nM. Further, the EC50 in series [2] was less than 300 nM.

With `Cc1cc(SCc2ccc(OCc3cc(Cl)ccc3Cl)cc2)ccc1OCC(=O)O` [Example 59], the melting point lay in the range of 101 to 103 °C. Also, the EC50 in series [1] lay within 1000 to 2000 nM. Further, the EC50 in series [2] is more than 5000 nM.

With `COc1cc(OCC(=O)O)c(C)cc1SCc1ccc(-c2cccc(C(F)(F)F)c2)cc1` [Example 9, [5-Methoxy-2-methyl-4-(3′-trifluoromethyl-biphenyl-4-ylmethylsulfanyl)-phenoxy]-acetic acid], the melting point lay within 138 to 139 °C. Also, the EC50 in series [1] is less than 300 nM. Also, the EC50 in series [2] was less than 300 nM.

Consider `Cc1cc(SCc2ccc(-c3ccc(C(F)(F)F)cn3)cc2)c2c(c1OCC(=O)O)CCO2` [Example 92, {5-Methyl-7-[4-(5-trifluoromethyl-pyridin-2-yl)-benzylsulfanyl]-2,3-dihydro-benzofuran-4-yxoly}-acetic acid], for which the melting point lay in the range of 155 to 157 °C. Besides, the EC50 in series [1] was less than 300 nM. The EC50 in series [2] is less than 300 nM.

In the case of `Cc1cc(SCc2ccc(-c3ccc(C(F)(F)F)cn3)cc2)c2c(c1OCC(=O)O)CCC2` [Example 27, {5-Methyl-7-[4-(5-trifluoromethyl-pyridin-2-yl)-benzylsulfanyl]-indan-4-yloxy}-acetic acid], the melting point came out at 186 °C. Further, the EC50 in series [1] was in the range of 2000 to 5000 nM. In series [2], the EC50 is 500 to 1000 nM.

Take `Cc1cc(SCCc2ccc(-c3ccc(C(F)(F)F)cc3)cc2)ccc1OCC(=O)O` [Example 22, {2-Methyl-4-[2-(4′-trifluoromethyl-biphenyl-4-yl)-ethylsulfanyl]-phenoxy}-acetic acid]: the melting point fell in the range of 132 to 134 °C. For the same compound, in series [1], the EC50 was 1000 to 2000 nM. Also, in series [2], the EC50 is 500 to 1000 nM.

The compound `Cc1cc(SCc2ccc(-c3ccc(C(F)(F)F)cn3)cc2)c2c(c1OCC(=O)O)CCCO2` [Example 36, {6-Methyl-8-[4-(5-trifluoromethyl-pyridine-2-yl)-benzylsulfanyl]-chroman-5-yloxy}-acetic acid] gave a melting point of 156 to 157 °C. Moreover, in series [1], the EC50 was in the range of 2000 to 5000 nM. Also, in series [2], the EC50 was less than 300 nM.

As to `O=C(O)COc1ccc(SCc2cc(-c3ccc(C(F)(F)F)cc3)on2)c2c1CCC2` [Example 44, {7-[5-(4-Trifluoromethyl-phenyl)-isoxazol-3-ylmethylsulfanyl]-indan-4-yloxy}-acetic acid], the EC50 in series [1] was 500 to 1000 nM; in series [2], more than 5000 nM.

Compound `Cc1cc(CCc2ccc(-c3ccc(C(F)(F)F)cc3)cc2)ccc1OCC(=O)O` [Example 25, {2-Methyl-4-[2-(4′-trifluoromethyl-biphenyl-4-yl)-ethyl]-phenoxy}-acetic acid] had a melting point of 174 to 176 °C. In series [1], the EC50 was in the range of 2000 to 5000 nM. Moreover, the EC50 in series [2] was 1000 to 2000 nM.

Turning to `COc1cc(OCC(=O)O)c(C)cc1SCc1cc(-c2ccc(C(F)(F)F)cc2)no1` [Example 46, {5-Methoxy-2-methyl-4-[3-(4-trifluoromethyl-phenyl)-isoxazol-5-ylmethylsulfanyl]-phenoxy}-acetic acid], the EC50 in series [1] and in series [2] was less than 300 nM each time.

The compound `O=C(O)COc1ccc(SCc2ccc(OCc3ccc(C(F)(F)F)cc3)cc2)c2c1CCC2` [Example 63, {7-[4-(4-Trifluoromethyl-benzyloxy)-benzylsulfanyl]-indan-4-yloxy}-acetic acid] returned a melting point of 145 °C. For the same compound, the EC50 in series [2] was in the range of 2000 to 5000 nM.

Turning to `COc1cc(OCC(=O)O)c(C)cc1SCc1ccc(OCc2ccc(C(F)(F)F)cc2)cc1` [Example 14, {5-Methoxy-2-methyl-4-[4-(4-trifluoromethyl-benzyloxy)-benzylsulfanyl]-phenoxy}-acetic acid], the melting point came to 145 °C. In addition, in series [2], the EC50 is less than 300 nM.

Regarding `COc1cc(OCC(=O)O)ccc1SCc1ccc(-c2ccc(C(F)(F)F)cc2)cc1` [Example 21, [3-Methoxy-4-(4′-trifluoromethyl-biphenyl-4-ylmethylsulfanyl)-phenoxy]-acetic acid], the EC50 in series [1] and in series [2] was less than 300 nM each time.

Regarding `COc1cc(OCC(=O)O)c(C)cc1SCc1ccc(-c2ccccc2)cc1` [Example 1, [4-(Biphenyl-4-ylmethylsulfanyl)-5-methoxy-2-methyl-phenoxy]-acetic acid], the melting point was 60 to 62 °C. For the same compound, in series [1], the EC50 is less than 300 nM. Also, the EC50 in series [2] was less than 300 nM.

With `O=C(O)COc1ccc(SCc2cccc(-c3ccc(C(F)(F)F)cn3)c2)c2c1CCC2` [Example 53, {7-[3-(5-Trifluoromethyl-pyridin-2-yl)-benzylsulfanyl]-indan-4-yloxy}-acetic acid], the EC50 was less than 300 nM in series [1] and 1000 to 2000 nM in series [2].

Turning to `O=C(O)COc1ccc(SCc2cccc(OCc3ccc(C(F)(F)F)cc3)c2)c2c1CCCO2` [Example 84, {8-[3-(4-Trifluoromethyl-benzyloxy)-benzylsulfanyl]-chroman-5-yloxy}-acetic acid], the melting point was in the range of 113 to 115 °C. In addition, the EC50 in series [2] is more than 5000 nM.

On to `COc1cc(OCC(=O)O)c(C)cc1SCc1cc(-c2ccc(Cl)cc2)on1` [Example 41, {4-[5-(4-Chloro-phenyl)-isoxazol-3-ylmethylsulfanyl]-5-methoxy-2-methyl-phenoxy}-acetic acid], for which the EC50 in series [1] is less than 300 nM; in series [2], 2000 to 5000 nM.

`O=C(O)COc1ccc(SCc2ccc(OCc3ccc(Cl)cc3Cl)cc2)c2c1CCC2` [Example 62, {7-[4-(2,4-Dichloro-benzyloxy)-benzylsulfanyl]-indan-4-yloxy}-acetic acid] had a melting point of 149 to 150 °C. In series [1], the EC50 was 1000 to 2000 nM. Further, the EC50 in series [2] is more than 5000 nM.

The compound `Cc1cc(SCc2ccc(-c3ccc(C(F)(F)F)cc3)cc2)c(Cl)cc1OCC(=O)O` [Example 20, [5-Chloro-2-methyl-4-(4′-trifluoromethyl-biphenyl-4-ylmethylsulfanyl)-phenoxy]-acetic acid] gave a melting point of 161 to 162 °C. Moreover, in series [1], the EC50 was less than 300 nM. Further, the EC50 in series [2] is 2000 to 5000 nM.

Turning to `COc1cc(OCC(=O)O)c(C)cc1SCc1cc(-c2ccc(C(F)(F)F)cc2)on1` [Example 43, {5-Methoxy-2-methyl-4-[5-(4-trifluoromethyl-phenyl)-isoxazol-3-ylmethylsulfanyl]-phenoxy}-acetic acid], the EC50 was less than 300 nM in series [1] and 500 to 1000 nM in series [2].

As for `Cc1cc(SCc2ccc3c(c2)Cc2ccccc2-3)ccc1OCC(=O)O` [Example 17], the EC50 was 1000 to 2000 nM in series [1] and 2000 to 5000 nM in series [2].

With `COc1cc(OCC(=O)O)c(C)cc1SCc1cccc(-c2ccc(C(F)(F)F)cc2)c1` [Example 49, [5-Methoxy-2-methyl-4-(4′-trifluoromethyl-biphenyl-3-ylmethylsulfanyl)-phenoxy]-acetic acid], the EC50 was less than 300 nM in series [1] and 300 to 500 nM in series [2].

As to `COc1cc(OCC(=O)O)c(C)cc1SCc1ccc(-c2cccc(OC(F)(F)F)c2)cc1` [Example 11, [5-Methoxy-2-methyl-4-(3′-trifluoromethoxy-biphenyl-4-ylmethylsulfanyl)-phenoxy]-acetic acid], the EC50 is less than 300 nM in series [1] and 500 to 1000 nM in series [2].

For the compound `COc1cc(OCC(=O)O)c(C)cc1SCc1ccc(-c2ccc(Cl)cc2Cl)cc1` [Example 7, [4-(2′,4′-Dichloro-biphenyl-4-ylmethylsulfanyl)-5-methoxy-2-methyl-phenoxy]-acetic acid], the EC50 in series [1] and in series [2] was less than 300 nM throughout.

As usually defined, the melting point is the temperature, or range, at which the solid turns liquid.

The record behind these values is patent US6964983B2, “Compounds that modulate PPAR activity and methods for their preparation” (Warner-Lambert Company, LLC, priority 2002, dated 2005).
